Measured values reported in patent US10987369B2, “Pdia4 protein as a target for diagnosis, monitoring and treatment of diabetes” (ACADEMIA SINICA, priority 2014, dated 2021).

Legend:
[1] = biological target: T1, GST-Pdia4 (Homo sapiens, UniProt P13667); test: Bovine pancreatic trypsin inhibitor (BPTI)-based assay of disulfide isomerase activity; type: biochemical; details: reduced BPTI as substrate, CP at different doses, FIG. 5B
T1 construct: made in house; host or cells: E. coli
T1 sequence (P13667 21-645): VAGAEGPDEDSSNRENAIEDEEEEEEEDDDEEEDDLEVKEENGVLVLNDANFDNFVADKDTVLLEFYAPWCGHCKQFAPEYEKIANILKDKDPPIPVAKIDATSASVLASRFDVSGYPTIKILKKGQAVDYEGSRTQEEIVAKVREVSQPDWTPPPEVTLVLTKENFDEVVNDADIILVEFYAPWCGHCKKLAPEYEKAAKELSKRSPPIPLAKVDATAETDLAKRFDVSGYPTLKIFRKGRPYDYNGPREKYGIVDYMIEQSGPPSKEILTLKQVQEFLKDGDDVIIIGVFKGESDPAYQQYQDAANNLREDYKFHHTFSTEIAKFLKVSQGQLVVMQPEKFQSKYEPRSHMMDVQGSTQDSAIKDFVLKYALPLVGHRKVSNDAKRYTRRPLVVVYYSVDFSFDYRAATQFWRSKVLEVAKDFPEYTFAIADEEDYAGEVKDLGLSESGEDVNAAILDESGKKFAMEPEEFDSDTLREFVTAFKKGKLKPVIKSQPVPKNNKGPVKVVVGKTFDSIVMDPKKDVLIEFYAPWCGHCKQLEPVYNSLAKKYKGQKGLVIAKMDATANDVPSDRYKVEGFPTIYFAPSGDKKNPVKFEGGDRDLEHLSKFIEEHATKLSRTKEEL
Protocol: Their postprandial blood glucose was determined using a glucometer. […] Their postprandial blood glucose was determined using a glucometer. Glutathione agarose bead-bound GST-Pdia4 (0.15 μg) were purified from E. coli bacteria.

[2] = test system: lepr^db/db mice; test: Postprandial blood glucose in treated lepr db/db mice; type: in vivo, mouse; details: cytopiloyne 2.5 mg/kg daily, FIG. 5C
Protocol: Their postprandial blood glucose was determined using a glucometer. […] Their postprandial blood glucose was determined using a glucometer.
To deplete pancreatic β cells in mice. […] Postprandial blood glucose was measured. […] Postprandial blood glucose was measured.

[3] = test system: pdia4^−/−lepr^db/db mice; test: Postprandial blood glucose in treated pdia4-/- lepr db/db mice; details: metformin 60 mg/kg BW, rosiglitazone 20 mg/kg BW or both, daily, FIG. 5A
Protocol: (A) lepr^db/db and pdia4^−/−lepr^db/db mice received a daily dose of PBS vehicle (Veh), metformin (MET, 60 mg/kg BW) and metformin (MET, 60 mg/kg BW)/rosiglitazone (ROS, 20 mg/kg BW). Their postprandial blood glucose was determined using a glucometer. […] (C) lepr^db/db mice received a daily dose of PBS vehicle (Veh), cytopiloyne (CP, 2.5 mg/kg), cytopiloyne (CP, 2.5 mg/kg)/metformin (MET, 60 mg/kg BW) and cytopiloyne (CP, 2.5 mg/kg)/metformin (MET, 60 mg/kg BW)/rosiglitazone (Ros, 20 mg/kg BW). Their postprandial blood glucose was determined using a glucometer.
To treat mice, PBS or a combination of cytopiloyne (2.5 mg/kg/day), metformin (60 mg/kg/day), and metformin (60 mg/kg/day) plus rosiglitazone (20 mg/kg/day) were fed for the indicated time. Postprandial blood glucose was measured. To treat pdia4^−/−lepr^db/db mice, PBS, metformin (60 mg/kg/day), and metformin (60 mg/kg/day) plus rosiglitazone (20 mg/kg/day) were fed for the indicated time. Postprandial blood glucose was measured.
After the overnight fasting, the mice had free access to food for 2 hr. fasting or postprandial blood glucose levels of the mice were measured using an Elite glucometer (Bayer).

Row | Structure (SMILES) | enzymatic (disulfide isomerase) activity of Pdia4 [1] | enzymatic (disulfide isomerase) activity of Pdia4 ([1]; listed as Cytopiloyne) | postprandial blood glucose [2] | hyperglycemia (postprandial blood glucose) [3]
1 | CC#CC#CC#CC#CCCC(CO)O[C@@H]1O[C@H](CO)[C@@H](O)[C@H](O)[C@H]1O (stereo partly shown) [cytopiloyne] | inhibited Pdia4 activity | suppress the enzymatic activity of Pdia4 | lower postprandial blood glucose | –
2 | CN(C)C(=N)N=C(N)N [metformin] | – | – | – | normalize hyperglycemia
